Bounds are passed on as bounds.

The target of series [1] is MAP kinase-interacting serine/threonine-protein kinase 1 (Homo sapiens, UniProt Q9BUB5). As to the kind of experiment: Inhibition of MNK1 (unknown origin).
The next series deals with Cytochrome P450 3A4 (Homo sapiens, UniProt P08684). As to the kind of experiment: Inhibition of CYP3A4 (unknown origin) incubated for 10 mins in presence of NADPH by LC-MS/MS analysis. It counts as ADME.
Series [2] deals with T1, AP2-associated protein kinase 1 (Homo sapiens, UniProt Q2M2I8). As to the kind of experiment: Inhibition of full length human AAK1 expressed in HEK293F cells assessed as suppression of AP2 phosphorylation measured after 3 hrs by Western blot analysis based cellular assay. It counts as cell-based. A general note: Immunoblotting shows a protein as a band on a membrane.
T1 sequence (Q2M2I8 whole entry): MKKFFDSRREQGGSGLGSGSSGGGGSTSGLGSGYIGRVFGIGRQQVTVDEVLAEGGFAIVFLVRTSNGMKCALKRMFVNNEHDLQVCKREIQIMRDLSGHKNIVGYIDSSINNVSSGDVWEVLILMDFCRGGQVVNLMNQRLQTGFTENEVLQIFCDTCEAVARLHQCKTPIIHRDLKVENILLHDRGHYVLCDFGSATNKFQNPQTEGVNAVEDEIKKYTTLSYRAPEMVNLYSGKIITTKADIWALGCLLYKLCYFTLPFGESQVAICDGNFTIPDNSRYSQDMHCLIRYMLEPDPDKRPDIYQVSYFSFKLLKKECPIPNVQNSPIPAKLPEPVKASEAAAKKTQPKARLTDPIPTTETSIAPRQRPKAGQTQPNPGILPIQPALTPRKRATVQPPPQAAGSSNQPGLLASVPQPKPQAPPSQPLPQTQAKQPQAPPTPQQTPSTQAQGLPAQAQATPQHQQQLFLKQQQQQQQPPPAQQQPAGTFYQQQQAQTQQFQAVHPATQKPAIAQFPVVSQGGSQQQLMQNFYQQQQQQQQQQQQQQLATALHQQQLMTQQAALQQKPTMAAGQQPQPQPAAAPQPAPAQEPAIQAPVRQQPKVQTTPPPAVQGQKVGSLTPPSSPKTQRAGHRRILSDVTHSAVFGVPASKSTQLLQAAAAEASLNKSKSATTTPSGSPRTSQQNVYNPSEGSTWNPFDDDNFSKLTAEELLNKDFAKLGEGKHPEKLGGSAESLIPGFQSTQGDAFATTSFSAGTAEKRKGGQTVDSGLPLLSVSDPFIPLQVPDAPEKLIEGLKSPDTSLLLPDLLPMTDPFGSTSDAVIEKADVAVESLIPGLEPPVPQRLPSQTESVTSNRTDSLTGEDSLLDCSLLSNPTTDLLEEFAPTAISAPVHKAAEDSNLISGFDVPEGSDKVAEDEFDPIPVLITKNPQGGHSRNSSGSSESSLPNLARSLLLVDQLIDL
Series [3] in a line: Cardiotoxicity in aortic ring (unknown origin) assessed as relaxation of phenylephrine induced aortic ring contraction at 10 uM incubated for 1 hr. Conditions: human. It counts as toxicity, tissue-based, Aorta. On the set-up: scale not given: the % may be the effect or the level left.
Series [4] is described as follows: Metabolic stability in rat liver microsomes assessed as parent compound remaining at 0.5 uM incubated for 10 mins in presence of NADPH by LC-MS/MS analysis. It counts as ADME, Microsome. Conditions: read-out: Stability. Background: Liver microsomes are vesicles of endoplasmic reticulum, rich in cytochrome P450 enzymes.
The nature of series [5]: Metabolic stability in mouse liver microsomes assessed as parent compound remaining at 0.5 uM incubated for 10 mins in presence of NADPH by LC-MS/MS analysis. It counts as ADME, Microsome. Conditions: liver microsomes, read-out: Stability.
Series [6] in a line: Metabolic stability in human liver microsomes assessed as parent compound remaining at 0.5 uM incubated for 10 mins in presence of NADPH by LC-MS/MS analysis. Conditions: read-out: Stability. Format: ADME, Microsome.
In series [7] the target is BMP-2-inducible protein kinase (Homo sapiens, UniProt Q9NSY1). The series can be described thus: Inhibition of BIKE (unknown origin).
Chain of BMP-2-inducible protein kinase (Q9NSY1 whole entry): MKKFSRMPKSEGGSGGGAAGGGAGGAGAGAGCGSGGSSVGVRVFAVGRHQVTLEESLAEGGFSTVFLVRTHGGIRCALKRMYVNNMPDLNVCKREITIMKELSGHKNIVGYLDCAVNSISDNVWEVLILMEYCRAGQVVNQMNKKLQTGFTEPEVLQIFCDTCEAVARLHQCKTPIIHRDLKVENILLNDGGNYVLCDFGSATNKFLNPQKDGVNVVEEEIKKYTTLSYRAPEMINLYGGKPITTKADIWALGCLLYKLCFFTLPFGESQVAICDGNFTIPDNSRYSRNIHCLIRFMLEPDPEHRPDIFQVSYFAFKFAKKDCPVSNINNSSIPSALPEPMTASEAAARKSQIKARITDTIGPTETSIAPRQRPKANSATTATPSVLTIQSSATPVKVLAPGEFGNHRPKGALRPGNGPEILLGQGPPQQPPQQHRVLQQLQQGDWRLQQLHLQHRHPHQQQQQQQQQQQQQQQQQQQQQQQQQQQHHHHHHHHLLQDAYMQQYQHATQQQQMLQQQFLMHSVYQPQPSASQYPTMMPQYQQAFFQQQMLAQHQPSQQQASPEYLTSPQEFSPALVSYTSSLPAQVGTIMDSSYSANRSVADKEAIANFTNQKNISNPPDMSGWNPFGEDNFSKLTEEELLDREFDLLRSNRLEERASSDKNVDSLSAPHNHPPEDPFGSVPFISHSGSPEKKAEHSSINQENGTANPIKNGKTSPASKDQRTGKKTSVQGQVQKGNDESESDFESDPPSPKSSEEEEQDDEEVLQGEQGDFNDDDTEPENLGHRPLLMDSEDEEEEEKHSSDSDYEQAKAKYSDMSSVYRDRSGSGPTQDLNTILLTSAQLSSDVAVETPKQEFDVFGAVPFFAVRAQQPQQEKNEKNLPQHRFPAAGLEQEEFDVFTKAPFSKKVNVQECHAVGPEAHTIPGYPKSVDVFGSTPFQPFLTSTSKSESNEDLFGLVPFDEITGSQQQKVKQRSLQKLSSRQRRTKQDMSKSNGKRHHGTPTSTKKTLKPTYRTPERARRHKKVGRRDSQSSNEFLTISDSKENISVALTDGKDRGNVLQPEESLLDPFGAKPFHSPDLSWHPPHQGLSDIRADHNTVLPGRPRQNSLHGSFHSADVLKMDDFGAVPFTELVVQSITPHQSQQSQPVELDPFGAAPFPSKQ
Series [8] concerns the target Myosin light chain kinase 2, skeletal/cardiac muscle (Homo sapiens, UniProt Q9H1R3). The series can be described thus: Inhibition of MYLK2 (unknown origin).
The target in series [9] is Citron Rho-interacting kinase (Homo sapiens, UniProt O14578). The series can be described thus: Inhibition of CRIK (unknown origin).
In another series the target is Aurora kinase C (Homo sapiens, UniProt Q9UQB9). The series can be described thus: Inhibition of AURC (unknown origin).
Series [10] has as its target T1, AP2-associated protein kinase 1. The series can be described thus: Inhibition of bacterially expressed GST-Xa-tagged human AAK1 using 5-FAM-labelled Aha-KEEQSQITSQVTGQIGWR-NH2 peptide as substrate incubated for 3 hrs in presence of ATP by electrophoretic analysis.
For series [11], the target named is AP2-associated protein kinase 1 (Mus musculus, UniProt Q3UHJ0). As to the kind of experiment: Displacement of 3H-LP-927443 from AAK1 in C57BL6 mouse brain homogenate assessed as inhibition constant incubated for 1 hr by liquid scintillation counter analysis. It counts as tissue-based. (In general: Loss of bound radioactivity is the signal in a displacement assay; it reports binding, not function.)
Chain of AP2-associated protein kinase 1 (Mus musculus, UniProt Q3UHJ0) (Q3UHJ0 whole entry): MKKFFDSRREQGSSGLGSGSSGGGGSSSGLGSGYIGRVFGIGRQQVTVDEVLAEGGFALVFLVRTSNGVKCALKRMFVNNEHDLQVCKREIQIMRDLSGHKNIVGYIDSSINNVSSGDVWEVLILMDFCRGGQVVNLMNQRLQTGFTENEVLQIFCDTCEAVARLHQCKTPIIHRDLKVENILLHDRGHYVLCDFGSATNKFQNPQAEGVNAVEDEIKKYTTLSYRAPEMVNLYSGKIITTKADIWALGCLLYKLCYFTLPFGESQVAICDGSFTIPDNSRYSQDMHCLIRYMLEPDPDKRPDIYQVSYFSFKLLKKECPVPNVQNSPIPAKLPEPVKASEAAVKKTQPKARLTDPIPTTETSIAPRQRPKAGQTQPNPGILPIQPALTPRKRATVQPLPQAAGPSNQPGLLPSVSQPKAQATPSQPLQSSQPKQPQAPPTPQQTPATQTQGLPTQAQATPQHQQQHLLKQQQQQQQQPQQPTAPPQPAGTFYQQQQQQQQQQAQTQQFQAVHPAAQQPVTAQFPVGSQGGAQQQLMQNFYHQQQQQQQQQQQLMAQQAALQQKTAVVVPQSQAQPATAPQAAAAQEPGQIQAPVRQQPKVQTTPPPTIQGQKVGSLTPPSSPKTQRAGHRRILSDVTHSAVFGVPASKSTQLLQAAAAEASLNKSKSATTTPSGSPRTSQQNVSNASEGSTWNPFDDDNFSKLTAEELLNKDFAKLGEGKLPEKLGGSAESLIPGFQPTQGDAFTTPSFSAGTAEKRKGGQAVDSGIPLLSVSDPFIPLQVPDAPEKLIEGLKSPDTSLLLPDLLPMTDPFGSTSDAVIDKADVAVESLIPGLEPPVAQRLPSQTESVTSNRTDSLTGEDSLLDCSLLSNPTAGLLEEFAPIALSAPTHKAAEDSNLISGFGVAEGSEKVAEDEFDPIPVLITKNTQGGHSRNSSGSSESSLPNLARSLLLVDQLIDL

Series [12] addresses Protein kinase C beta type (Homo sapiens, UniProt P05771). As to the kind of experiment: Inhibition of PKCb2 (unknown origin).
Series [13] deals with Rho-associated protein kinase 2 (Homo sapiens, UniProt O75116). The series can be described thus: Inhibition of ROCK2 (unknown origin).
The target of series [14] is T2, Dual specificity mitogen-activated protein kinase kinase 1 (Homo sapiens, UniProt Q02750). As to the kind of experiment: Inhibition of MAP2K1 (unknown origin).
T2 sequence (Q02750 whole entry): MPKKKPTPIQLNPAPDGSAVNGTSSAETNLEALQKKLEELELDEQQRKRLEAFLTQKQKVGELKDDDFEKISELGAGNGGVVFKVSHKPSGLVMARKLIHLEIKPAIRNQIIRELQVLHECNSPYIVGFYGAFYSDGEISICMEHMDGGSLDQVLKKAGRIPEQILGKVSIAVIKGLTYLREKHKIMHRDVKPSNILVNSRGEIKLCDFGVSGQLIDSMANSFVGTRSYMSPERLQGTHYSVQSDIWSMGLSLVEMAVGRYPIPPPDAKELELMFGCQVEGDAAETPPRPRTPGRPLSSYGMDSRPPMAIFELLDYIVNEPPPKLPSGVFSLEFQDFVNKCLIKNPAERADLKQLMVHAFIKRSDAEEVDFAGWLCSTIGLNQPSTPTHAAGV
The target of series [15] is T2, Dual specificity mitogen-activated protein kinase kinase 1. As to the kind of experiment: Inhibition of MEK1 (unknown origin).
For series [16], the target named is T3, Homeodomain-interacting protein kinase 4 (Homo sapiens, UniProt Q8NE63).
T3 sequence (Q8NE63 whole entry): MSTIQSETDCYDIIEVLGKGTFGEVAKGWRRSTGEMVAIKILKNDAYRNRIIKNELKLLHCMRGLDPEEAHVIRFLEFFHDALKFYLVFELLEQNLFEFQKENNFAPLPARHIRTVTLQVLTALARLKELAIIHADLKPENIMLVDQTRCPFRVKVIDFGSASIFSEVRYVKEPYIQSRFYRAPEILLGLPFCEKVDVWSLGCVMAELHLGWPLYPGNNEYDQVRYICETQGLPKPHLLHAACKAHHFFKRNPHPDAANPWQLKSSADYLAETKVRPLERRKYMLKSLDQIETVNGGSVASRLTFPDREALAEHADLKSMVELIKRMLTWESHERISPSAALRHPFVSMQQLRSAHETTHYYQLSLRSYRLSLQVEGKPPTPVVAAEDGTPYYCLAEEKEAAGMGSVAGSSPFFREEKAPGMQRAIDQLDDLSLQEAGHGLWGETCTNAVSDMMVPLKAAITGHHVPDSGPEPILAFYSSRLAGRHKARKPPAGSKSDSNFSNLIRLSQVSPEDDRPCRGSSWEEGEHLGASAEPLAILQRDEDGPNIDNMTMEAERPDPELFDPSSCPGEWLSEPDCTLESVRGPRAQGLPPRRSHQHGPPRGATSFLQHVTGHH
As to the kind of experiment: Inhibition of HIPK4 (unknown origin).

Series [17] addresses Dual specificity protein kinase CLK4 (Homo sapiens, UniProt Q9HAZ1). The series can be described thus: Inhibition of CLK4 (unknown origin).
Series [18] in a line: Inhibition of IGFR (unknown origin). On the set-up: species or system Homo sapiens.

Chain of Cytochrome P450 3A4 (P08684 whole entry): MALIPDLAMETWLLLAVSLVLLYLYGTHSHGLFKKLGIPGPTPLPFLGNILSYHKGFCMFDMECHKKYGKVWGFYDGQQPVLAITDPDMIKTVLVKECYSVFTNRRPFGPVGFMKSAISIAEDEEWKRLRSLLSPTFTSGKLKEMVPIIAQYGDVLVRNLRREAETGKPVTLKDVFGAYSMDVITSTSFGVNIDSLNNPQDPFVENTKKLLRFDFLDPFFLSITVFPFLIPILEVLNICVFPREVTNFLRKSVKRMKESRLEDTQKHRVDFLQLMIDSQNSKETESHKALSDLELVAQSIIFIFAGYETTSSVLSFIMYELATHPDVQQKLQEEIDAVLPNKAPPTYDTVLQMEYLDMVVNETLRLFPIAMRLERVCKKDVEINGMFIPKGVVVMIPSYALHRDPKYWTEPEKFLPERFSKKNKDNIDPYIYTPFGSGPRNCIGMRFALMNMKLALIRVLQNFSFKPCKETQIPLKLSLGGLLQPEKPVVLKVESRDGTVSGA
Chain of MAP kinase-interacting serine/threonine-protein kinase 1 (Q9BUB5 whole entry): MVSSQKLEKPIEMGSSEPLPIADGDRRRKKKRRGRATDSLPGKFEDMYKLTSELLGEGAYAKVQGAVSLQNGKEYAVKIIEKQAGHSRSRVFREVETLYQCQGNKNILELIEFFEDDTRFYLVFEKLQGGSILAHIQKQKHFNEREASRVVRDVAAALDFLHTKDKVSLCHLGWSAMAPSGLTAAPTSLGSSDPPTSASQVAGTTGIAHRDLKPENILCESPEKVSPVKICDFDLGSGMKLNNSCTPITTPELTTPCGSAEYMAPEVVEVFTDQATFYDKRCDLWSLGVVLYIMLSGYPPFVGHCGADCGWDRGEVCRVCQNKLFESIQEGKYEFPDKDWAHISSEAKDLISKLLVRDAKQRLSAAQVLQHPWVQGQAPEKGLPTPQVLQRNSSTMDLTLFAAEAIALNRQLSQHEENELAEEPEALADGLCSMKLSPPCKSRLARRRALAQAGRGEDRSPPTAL
Chain of Myosin light chain kinase 2, skeletal/cardiac muscle (Q9H1R3 whole entry): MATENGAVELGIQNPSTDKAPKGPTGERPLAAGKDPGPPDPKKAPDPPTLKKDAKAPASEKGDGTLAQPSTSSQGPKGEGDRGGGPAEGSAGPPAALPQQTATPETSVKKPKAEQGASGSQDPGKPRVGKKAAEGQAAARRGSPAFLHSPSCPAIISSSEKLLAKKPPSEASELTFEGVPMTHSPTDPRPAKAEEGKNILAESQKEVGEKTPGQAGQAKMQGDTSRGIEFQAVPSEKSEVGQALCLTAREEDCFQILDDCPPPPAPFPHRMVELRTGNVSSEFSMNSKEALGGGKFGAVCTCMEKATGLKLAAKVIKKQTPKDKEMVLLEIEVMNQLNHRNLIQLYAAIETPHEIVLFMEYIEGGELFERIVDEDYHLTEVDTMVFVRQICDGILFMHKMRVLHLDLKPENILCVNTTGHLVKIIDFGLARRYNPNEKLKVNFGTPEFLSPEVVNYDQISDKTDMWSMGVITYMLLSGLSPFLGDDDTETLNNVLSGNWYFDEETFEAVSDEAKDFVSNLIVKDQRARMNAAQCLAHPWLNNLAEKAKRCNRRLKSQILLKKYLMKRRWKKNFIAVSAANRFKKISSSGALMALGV

On to `Cc1cc(-c2cc(C(F)F)c(OC[C@@](C)(N)CC(C)C)cn2)ccn1`, for which the IC50 in [1] was 250 nM; on Cytochrome P450 3A4, over 20000 nM; in [2] it was 0.9 nM; in series [7], 180 nM; in [8] it was 350 nM; in series [9], 750 nM. Also, the IC50 on Aurora kinase C was 540 nM; in series [10], 0.5 nM; in series [12], 1600 nM. In addition, in series [3], the Activity was found to be 85%. Further, the remaining at 10 min, 0.5 µM was determined as 81% in series [4], 76% in series [5] and 84% in series [6]. In [11], the inhibition constant Ki is 0.18 nM.

Consider `COC(=O)Nc1cc(-c2cnc(OC[C@@](C)(N)CC(C)C)c(Cl)c2)ccn1`, for which the half-inhibitory concentration (IC50) is over 20000 nM on Cytochrome P450 3A4; 1100 nM in [13]; 4.2 nM in series [2]; 1860 nM in series [14]; 1800 nM in series [15]; 1300 nM in [16]. Besides, the results for the 50% inhibitory concentration (IC50) in series [7], in series [10] and in series [17] were 6 nM, 0.4 nM and 740 nM, respectively. The Activity in [3] is 87%. The remaining at 10 min, 0.5 µM in series [4] came to 73%; in [5] it was 65%; in [6] it was 90%. Moreover, the Ki in series [11] came to 0.11 nM.

As to `CC(C)C[C@](C)(N)COc1cnc(-c2ccnc(Cl)c2)cc1C(F)F`, the 50% inhibitory concentration (IC50) in series [1] is 490 nM; in series [18] it was 1700 nM; on Cytochrome P450 3A4 it was over 20000 nM; in series [2], 2.7 nM; in series [7], 260 nM; in series [10] it was 0.8 nM. Besides, in series [3], the Activity came out at 81%. Besides, the values for the remaining at 10 min, 0.5 µM in series [4], in series [5] and in series [6] were 93%, 93% and 92%, respectively.

What is called IC50 is the point on the concentration scale where inhibition reaches its midpoint. By Ki is commonly meant a dissociation constant, usually derived from enzyme kinetics or from competition with a known ligand.
